Source: patent publication US20240299387A1, “HETEROCYCLIC EGFR INHIBITORS FOR USE IN THE TREATMENT OF CANCER” (Blueprint Medicines Corporation, priority 2021, published 2024)
Where a name gives a salt, the structure may show the parent alone. Read-outs that look alike come from different tables or passages of the source.

Experiments:
[1] = target: T1, EGFR (L858R T790M C797S) (Homo sapiens, UniProt P00533, C797S/L858R/T790M); assay: Biochemical EGFR inhibition assay (Caliper mobility shift), EGFR LRTMCS mutant
T1 construct: purchased SignalChem E10-122VG
T1 sequence (P00533 25-1210 T790M/C797S/L858R): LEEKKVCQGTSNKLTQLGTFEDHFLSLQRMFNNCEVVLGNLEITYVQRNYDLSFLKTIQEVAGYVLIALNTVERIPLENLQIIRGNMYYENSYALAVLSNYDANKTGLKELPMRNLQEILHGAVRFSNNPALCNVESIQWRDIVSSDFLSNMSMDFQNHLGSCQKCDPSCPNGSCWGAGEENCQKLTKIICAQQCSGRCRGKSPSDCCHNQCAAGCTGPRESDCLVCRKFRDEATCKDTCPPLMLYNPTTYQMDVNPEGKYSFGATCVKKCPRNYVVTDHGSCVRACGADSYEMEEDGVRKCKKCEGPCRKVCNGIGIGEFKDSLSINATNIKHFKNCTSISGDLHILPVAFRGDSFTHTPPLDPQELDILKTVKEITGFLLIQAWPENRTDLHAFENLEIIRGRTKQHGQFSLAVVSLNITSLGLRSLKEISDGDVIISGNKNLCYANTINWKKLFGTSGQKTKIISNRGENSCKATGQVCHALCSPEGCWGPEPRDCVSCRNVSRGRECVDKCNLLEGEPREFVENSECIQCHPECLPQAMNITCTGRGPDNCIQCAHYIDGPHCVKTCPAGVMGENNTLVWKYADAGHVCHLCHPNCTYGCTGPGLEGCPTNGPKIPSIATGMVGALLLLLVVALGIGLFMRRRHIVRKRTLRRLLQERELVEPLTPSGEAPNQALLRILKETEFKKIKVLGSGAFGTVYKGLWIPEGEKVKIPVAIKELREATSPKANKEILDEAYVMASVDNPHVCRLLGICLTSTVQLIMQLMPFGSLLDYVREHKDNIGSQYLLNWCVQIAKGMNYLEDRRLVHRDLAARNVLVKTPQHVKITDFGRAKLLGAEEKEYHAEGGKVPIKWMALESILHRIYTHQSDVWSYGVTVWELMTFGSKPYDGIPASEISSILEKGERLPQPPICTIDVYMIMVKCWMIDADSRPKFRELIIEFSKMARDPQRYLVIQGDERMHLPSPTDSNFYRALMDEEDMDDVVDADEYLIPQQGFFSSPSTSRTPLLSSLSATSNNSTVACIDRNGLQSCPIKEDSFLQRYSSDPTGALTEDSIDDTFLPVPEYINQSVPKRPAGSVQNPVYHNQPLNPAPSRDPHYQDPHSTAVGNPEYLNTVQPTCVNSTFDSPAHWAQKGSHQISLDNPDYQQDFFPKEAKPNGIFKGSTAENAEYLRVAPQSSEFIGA
Protocol: Reactions proceeded until between 10% to 20% total peptides were phosphorylated at room temperature (25° C.) and were terminated with 35 mM 2,2′,2″,2′″-(ethane-1,2-diyldinitrilo)tetraacetic acid (EDTA). Product was detected using the Caliper mobility shift detection method where the phosphorylated peptide (product) and substrate were electrophoretically separated and measured. Percent activity was plotted against log concentration of compound and points to generate an apparent IC50.

[2] = target: T2, EGFR L858R T790M in NCI-H1975 cell line (Homo sapiens, UniProt P00533, L858R/T790M); assay: NCI-H1975 pEGFR AlphaLISA assay; assay type: cell-based; settings: NCI-H1975 cells (EGFR L858R T790M), p-EGFR (Tyr1068), 4-5 hours incubation; read-out: Ext pEGFR H1975 GMean IC50 (nM) Protocol: @Pharmaron AlphaLISA (Num)
T2 construct: host or cells: NCI-H1975
T2 sequence (P00533 25-1210 T790M/L858R): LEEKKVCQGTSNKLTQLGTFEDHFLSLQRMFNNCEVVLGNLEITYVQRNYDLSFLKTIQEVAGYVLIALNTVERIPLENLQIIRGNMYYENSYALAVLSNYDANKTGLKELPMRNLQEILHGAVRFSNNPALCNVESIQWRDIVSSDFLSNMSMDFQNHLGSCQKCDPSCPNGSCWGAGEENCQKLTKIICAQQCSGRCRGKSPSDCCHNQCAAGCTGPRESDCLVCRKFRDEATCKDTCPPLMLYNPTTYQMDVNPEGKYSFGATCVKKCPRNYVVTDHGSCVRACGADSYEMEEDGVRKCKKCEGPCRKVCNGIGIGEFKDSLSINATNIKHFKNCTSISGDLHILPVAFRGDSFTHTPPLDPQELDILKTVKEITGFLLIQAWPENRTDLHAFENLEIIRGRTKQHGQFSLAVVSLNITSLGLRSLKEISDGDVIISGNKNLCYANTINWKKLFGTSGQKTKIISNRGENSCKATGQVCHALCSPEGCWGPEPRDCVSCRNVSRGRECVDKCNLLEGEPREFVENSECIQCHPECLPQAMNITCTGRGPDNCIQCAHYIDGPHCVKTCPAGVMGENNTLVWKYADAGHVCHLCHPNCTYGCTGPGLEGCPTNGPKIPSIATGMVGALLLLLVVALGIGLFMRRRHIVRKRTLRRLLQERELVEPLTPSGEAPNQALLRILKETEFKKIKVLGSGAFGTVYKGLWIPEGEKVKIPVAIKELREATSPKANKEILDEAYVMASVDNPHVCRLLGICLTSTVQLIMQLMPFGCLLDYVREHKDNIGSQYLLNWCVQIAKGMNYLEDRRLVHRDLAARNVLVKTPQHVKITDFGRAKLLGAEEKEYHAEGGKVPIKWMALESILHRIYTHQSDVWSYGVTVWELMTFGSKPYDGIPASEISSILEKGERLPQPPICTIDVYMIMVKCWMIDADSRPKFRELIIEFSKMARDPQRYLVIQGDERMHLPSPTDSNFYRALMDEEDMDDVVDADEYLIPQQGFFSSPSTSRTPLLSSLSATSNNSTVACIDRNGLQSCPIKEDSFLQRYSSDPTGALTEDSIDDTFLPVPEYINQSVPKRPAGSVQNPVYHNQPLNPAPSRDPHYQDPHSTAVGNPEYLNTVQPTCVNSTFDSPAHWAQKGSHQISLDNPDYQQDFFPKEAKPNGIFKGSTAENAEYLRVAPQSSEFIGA
Protocol: The NCI-H1975 cells were seeded at 12.5K/well in 22 μL into 384 well opti plate (PerkinElmer, 6007299) and adhering overnight at 37C/5% CO2. On the next day, the test compounds and DMSO control were added into H1975 cell plate followed by incubation at 37C/5% CO2 for 4-5 hours. […] Then 5 μL of a donor bead mix was added to each well followed by overnight incubation at room temperature in dark. On the next day, the plate was read at a compatible plate reader to obtain pEGFR signal. Percent of pEGFR inhibition was plotted against log concentration of compounds to generate IC50 values.

[3] = LRTMCS (PH) IC50 (nM) @ 1 mM ATP (Num)
[4] = read-out: LRTMCS (PH) IC50 (nM) @ 1 mM ATP (Num)

Row | Structure (SMILES) | IC50 [1, 3] [nM] | IC50 [2] [nM] | IC50 [1, 4] [nM]
1 | CC(C)c1cnc(C(=O)N[C@H]2CNC[C@H]2F)c2cnc(Nc3ccnc(N4CC[C@@H](O)[C@@](C)(F)C4)n3)cc12 (racemic) [Example 85, 6-((2-((3S,4R)-3-fluoro-4-hydroxy-3-methylpiperidin-1-yl)pyrimidin-4-yl)amino)-N-((3S,4R)-4-fluoropyrrolidin-3-yl)-4-isopropyl-2,7-naphthyridine-1-carboxamide trifluoroacetate and 6-((2-((3S,4R)-3-fluoro-4-hydroxy-3-methylpiperidin-1-yl)pyrimidin-4-yl)amino)-N-((3R,4S)-4-fluoropyrrolidin-3-yl)-4-isopropyl-2,7-naphthyridine-1-carboxamide trifluoroacetate] | < 15 | 10 to 20 | 
2 | CC(C)c1cnc(C(=O)N[C@@H]2CNC[C@H]2F)c2cnc(Nc3ccnc(N4CC[C@@H](O)[C@@](C)(F)C4)n3)cc12 (racemic) [Example 86, 6-((2-((3S,4R)-3-fluoro-4-hydroxy-3-methylpiperidin-1-yl)pyrimidin-4-yl)amino)-N-((3R,4R)-4-fluoropyrrolidin-3-yl)-4-isopropyl-2,7-naphthyridine-1-carboxamide trifluoroacetate and 6-((2-((3S,4R)-3-fluoro-4-hydroxy-3-methylpiperidin-1-yl)pyrimidin-4-yl)amino)-N-((3S,4S)-4-fluoropyrrolidin-3-yl)-4-isopropyl-2,7-naphthyridine-1-carboxamide trifluoroacetate] | 20 to 30 | > 50 | 
3 | CO[C@@H]1CCN(c2nccc(Nc3cc4c(C(C)C)ccc(NCC5CNC[C@@H]5S(C)(=O)=O)c4cn3)n2)C[C@@H]1F (single isomer, unassigned) [Example 1, N3-(2-((3S,4R)-3-fluoro-4-methoxypiperidin-1-yl)pyrimidin-4-yl)-5-isopropyl-N8-(((4R)-4-(methylsulfonyl)pyrrolidin-3-yl)methyl)isoquinoline-3,8-diamine or N3-(2-((3S,4R)-3-fluoro-4-methoxypiperidin-1-yl)pyrimidin-4-yl)-5-isopropyl-N8-(((4S)-4-(methylsulfonyl)pyrrolidin-3-yl)methyl)isoquinoline-3,8-diamine] | < 15 | 30 to 50 | 
4 | CC(C)c1cnc(NC[C@H](C)N(C)C)c2cnc(Nc3ccnc(N4CC[C@@H](O)[C@@](C)(F)C4)n3)cc12 (single isomer, unassigned) [Example 4, (3S,4R)-1-(4-((8-(((S)-2-(dimethylamino)propyl)amino)-5-isopropyl-2,7-naphthyridin-3-yl)amino)pyrimidin-2-yl)-3-fluoro-3-methylpiperidin-4-ol or (3S,4R)-1-(4-((8-(((R)-2-(dimethylamino)propyl)amino)-5-isopropyl-2,7-naphthyridin-3-yl)amino)pyrimidin-2-yl)-3-fluoro-3-methylpiperidin-4-ol] | 30 to 100 | > 50 | 
5 | CC(C)c1ccc(OC[C@@H]2CC(=O)N(C)C2)c2cnc(Nc3ccnc(N4CC[C@@H](O)[C@@](C)(F)C4)n3)cc12 (single isomer, unassigned) [Example 21] |  | < 10 | < 15
6 | CC(C)c1ccc(OC[C@H]2COC(=O)N2C)c2cnc(Nc3ccnc(N4CC[C@@](C)(O)[C@@H](F)C4)n3)cc12 (single isomer, unassigned) [Example 23] |  | 30 to 50 | 15 to 20
7 | CC(=O)N1CC([C@@H](C)Oc2ccc(C(C)C)c3cc(Nc4ccnc(N5CC[C@@H](O)[C@@](C)(F)C5)n4)ncc23)C1 (single isomer, unassigned) [Example 24, 1-(3-((R)-1-((3-((2-((3S,4R)-3-fluoro-4-hydroxy-3-methylpiperidin-1-yl)pyrimidin-4-yl)amino)-5-isopropylisoquinolin-8-yl)oxy)ethyl)azetidin-1-yl)ethan-1-one or 1-(3-((S)-1-((3-((2-((3S,4R)-3-fluoro-4-hydroxy-3-methylpiperidin-1-yl)pyrimidin-4-yl)amino)-5-isopropylisoquinolin-8-yl)oxy)ethyl)azetidin-1-yl)ethan-1-one] | < 15 | < 10 | 
8 | CC(=O)N1CC(COc2cccc3cc(Nc4ccnc(N5C[C@@H](F)[C@@H](O)C(C)(C)C5)n4)ncc23)C1 (single isomer, unassigned) [Example 42, 1-(3-(((3-((2-((4S,5R)-5-fluoro-4-hydroxy-3,3-dimethylpiperidin-1-yl)pyrimidin-4-yl)amino)isoquinolin-8-yl)oxy)methyl)azetidin-1-yl)ethenone or 1-(3-(((3-((2-((4R,5S)-5-fluoro-4-hydroxy-3,3-dimethylpiperidin-1-yl)pyrimidin-4-yl)amino)isoquinolin-8-yl)oxy)methyl)azetidin-1-yl)ethenone] | 20 to 30 | > 50 | 
9 | CC(C)c1ccc(OCCn2cnnc2)c2cnc(Nc3ccnc(N4CC[C@H]5COC[C@H]54)n3)cc12 (single isomer, unassigned) [Example 50] | 20 to 30 | > 50 | 
10 | CC(C)c1ccc(OCCn2cnnc2)c2cnc(Nc3ccnc(N4CC[C@H]5COC[C@H]54)n3)cc12 (single isomer, unassigned) [Example 51] |  | > 50 | 20 to 30
11 | CO[C@H]1CCN(c2nccc(Nc3cc4c(C(C)C)ccc(OCCCNC(C)=O)c4cn3)n2)C[C@@H]1O (single isomer, unassigned) [Example 58, N-(3-((3-((2-((3S,4S)-3-hydroxy-4-methoxypiperidin-1-yl)pyrimidin-4-yl)amino)-5-isopropylisoquinolin-8-yl)oxy)propyl)acetamide or N-(3-((3-((2-((3R,4R)-3-hydroxy-4-methoxypiperidin-1-yl)pyrimidin-4-yl)amino)-5-isopropylisoquinolin-8-yl)oxy)propyl)acetamide] | < 15 | 20 to 30 | 

Now from value to compound:

Row | IC50 [1, 3] [nM] | IC50 [2] [nM] | IC50 [1, 4] [nM] | Structure (SMILES)
12 | < 15 | 10 to 20 |  | CC(C)c1ccc(OC[C@H]2CCC(=O)N2C)c2cnc(Nc3ccnc(N4CCC(C)(O)CC4)n3)cc12 (single isomer, unassigned) [Example 19, (R)-5-(((3-((2-(4-hydroxy-4-methylpiperidin-1-yl)pyrimidin-4-yl)amino)-5-isopropylisoquinolin-8-yl)oxy)methyl)-1-methylpyrrolidin-2-one or (S)-5-(((3-((2-(4-hydroxy-4-methylpiperidin-1-yl)pyrimidin-4-yl)amino)-5-isopropylisoquinolin-8-yl)oxy)methyl)-1-methylpyrrolidin-2-one]
13 | < 15 | 10 to 20 |  | CC(C)c1ccc(OC[C@@H]2CC(=O)N(C)C2)c2cnc(Nc3ccnc(N4CC[C@@H](O)[C@@](C)(F)C4)n3)cc12 (single isomer, unassigned) [Example 20]
14 | 15 to 20 | > 50 |  | CC(C)c1ccc(OC[C@H]2COC(=O)N2C)c2cnc(Nc3ccnc(N4CC[C@@](C)(O)[C@@H](F)C4)n3)cc12 (single isomer, unassigned) [Example 22]
15 | < 15 | 30 to 50 |  | CO[C@@H]1CCN(c2nccc(Nc3cc4c(C(C)C)ccc(OCC5CN(C(C)=O)C5)c4cn3)n2)C[C@@H]1O (single isomer, unassigned) [Example 56, 1-(3-(((3-((2-((3S,4R)-3-hydroxy-4-methoxypiperidin-1-yl)pyrimidin-4-yl)amino)-5-isopropylisoquinolin-8-yl)oxy)methyl)azetidin-1-yl)ethan-1-one or 1-(3-(((3-((2-((3R,4S)-3-hydroxy-4-methoxypiperidin-1-yl)pyrimidin-4-yl)amino)-5-isopropylisoquinolin-8-yl)oxy)methyl)azetidin-1-yl)ethan-1-one]
16 | 15 to 20 | > 50 |  | CO[C@H]1CCN(c2nccc(Nc3cc4c(C(C)C)ccc(OCC5CN(C(C)=O)C5)c4cn3)n2)C[C@@H]1O (single isomer, unassigned) [Example 57, 1-(3-(((3-((2-((3S,4S)-3-hydroxy-4-methoxypiperidin-1-yl)pyrimidin-4-yl)amino)-5-isopropylisoquinolin-8-yl)oxy)methyl)azetidin-1-yl)ethan-1-one or 1-(3-(((3-((2-((3R,4R)-3-hydroxy-4-methoxypiperidin-1-yl)pyrimidin-4-yl)amino)-5-isopropylisoquinolin-8-yl)oxy)methyl)azetidin-1-yl)ethan-1-one]
17 | 20 to 30 | > 50 |  | CC(C)c1cnc(C(N)=O)c2cnc(Nc3ccnc(N4CC[C@@H](O)[C@@](C)(F)C4)n3)cc12 (single isomer, unassigned) [Example 61, 6-((2-((3S,4R)-3-fluoro-4-hydroxy-3-methylpiperidin-1-yl)pyrimidin-4-yl)amino)-4-isopropyl-2,7-naphthyridine-1-carboxamide or 6-((2-((3R,4S)-3-fluoro-4-hydroxy-3-methylpiperidin-1-yl)pyrimidin-4-yl)amino)-4-isopropyl-2,7-naphthyridine-1-carboxamide]
